Earlier results, collected in patent publication US8986935B2, “Methods for treating spinal muscular atrophy” (PTC Therapeutics, Inc., priority 2008, dated 2015).

Tested on: SMN protein

CC[C@@]1(O)C[C@H](O[C@H]2C[C@H](N(C)C)[C@H](O[C@H]3C[C@H](O)[C@H](O[C@H]4CCC(=O)[C@H](C)O4)[C@H](C)O3)[C@H](C)O2)c2c(cc3c(c2O)C(=O)c2c(O)cccc2C3=O)[C@H]1C(=O)OC [aclarubicin]
SMN protein in cell culture: increase SMN protein
